US10040822B2, “Neuroprotective composition and method of use” (Brown University, priority 2012, dated 2018)
Where no end group is shown, it is not given here.

Key:
[1] = system: NMDA-insult to the retina; experiment: In vivo rat retinal toxicity model of NMDA-induced chemical stroke; settings: for long-term protection against NMDA-induced retinal ganglion cell death: 14-21 day post-insult, single dosing; for long-term protection against NMDA-induced retinal ganglion cell death / NMDA-induced loss of plasma membrane selectivity in NMDA-receptive neurons / NMDA-induced caspase activation / NMDA-induced mitochondrial-induced oxidative stress in the retina / NMDA-induced poly-(ADP)ribosylolation / short-term protection against NMDA-insult: rat retina; for short-term neuronal cell death signaling: compound administered simultaneously with NMDA-induced chemical stroke; for NMDA-induced loss of plasma membrane selectivity in NMDA-receptive neurons: out to 8 hrs post-insult, compound given simultaneously with NMDA; for NMDA-induced caspase activation / NMDA-induced mitochondrial-induced oxidative stress in the retina / NMDA-induced poly-(ADP)ribosylolation: short-term, 2-4 hrs post-NMDA-insult
Description: 7. Blockade of PARP activity attenuates poly(ADP-ribosyl)ation but offers only partial neuroprotection against NMDA-induced cell death in the rat retina. (Goebel and Winkler, J Neuro Chem, 98:1732-1745, 2006) (NMDA-induced chemical stroke in vivo rat retinal neurotoxicity model).
In a test model, the retina was protected from NMDA-induced chemical stroke. […] The compositions of this invention are useful in a variety of clinical situations, most of which are characterized by neurological insult or cellular insult typified by mitochondrial damage. Without being bound by any particular theory, untreated mitochondrial damage is believed to lead to generation of free radical species. The compositions of this invention appear to avert or curtail oxidative stress in the retina following NMDA-insult by reducing mitochondrial originated free radical generation. Without being bound by any particular theory, such activity is believed to be significant in neuroprotection arising from the compositions of this invention.
Data establish that the compounds of the present invention protect the neural tissue (retina) against a strong NMDA-insult, with particular reference to R(7) (SEQ ID NO: 5), CR(7) (SEQ ID NO: 8) and C-s-s-CR(7) (“CR(7)” disclosed as SEQ ID NO: 8).

HEK293 cells = experiment: Cultured HEK293 cells pretreated with peptide, chemically induced excitotoxic challenge, mitochondrial readouts; format: cell-based; settings: for oxidative stress following excitotoxic challenge / stress-induced hyperpolarization of the mitochondrial membrane potentials: HEK293 cells pretreated with peptide, compared with sham-treated controls; for mitochondrial oxidative stress: further studies by the applicant's group, system not given
glaucoma = experiment: Glaucoma patient treated with CR(7) eye drops (Example 9); format: in vivo, human; settings: Example 9, glaucoma patient, eye drops 1.25 μg per 20 μl drop, two drops morning and night, chronic
Description: A person presents with a complaint of blurry vision in their left eye for 1 week. Their IOP is above 21 mmHg. A diagnosis of glaucoma is made.
Effort is made to surgically reduce IOP. In post-surgical monitoring, IOP levels remain above normal excepted levels. To prevent retinal damage resulting from the prolonged exposure to elevated IOP. the patient is administered CR(7) (SEQ ID NO: 8) in the form of eye drops suspended in a corneal penetrating lipophilic suspension. Each 20 μl drop contains 1.25 μg of CR(7) (SEQ ID NO: 8) The total applied/treatment is 2.5 μg. Two drops are administered morning and two drops at night

retinal neurons = experiment: Uptake of fluorescent-tagged peptides into retinal neurons after injection into the vitreal chamber; format: in vivo; settings: intravitreal, rat
Description: Attention is drawn to the uptake into brain tissues under in vivo conditions Fluorescent-tagged R(7) (SEQ ID NO: 5) and C-s-s-CR(7) (“CR(7)” disclosed as SEQ ID NO: 8) were injected into the vitreal chamber of a rat eyes and analyzed for specific uptake into retinal neurons at multiple time points post-injection. […] At longer time points (2-4 hrs post injection) the accumulation of the labeled peptides accumulated within the cytoplasm of the majority of neurons in the inner half of the retina with preferential accumulations being localized to small membrane-bound organelles surrounding the nucleus of both ganglion cells and amacrine cells as well as in exiting ganglion cell axons.

spinal cord injury = experiment: Spinal cord injury patient treated i.v. with polyarginine (Example 8); format: in vivo, human; settings: Example 8, spinal cord injury patient, i.v. 0.15 mg/kg every other day for 30 days
Description: A person presents with a spinal cord injury following an automobile accident. The subject is conscious but unable to move their legs. […] A Th(11)-L(2) laminectomy is performed along with retrieval of foreign bodies and dura repair. Upon admission the patient is administered an i.v. containing R(7)C-s-s-C (“R(7)C” disclosed as SEQ ID NO: 12) peptide at 0.15 mg/kg.

stroke = experiment: Stroke patient treated i.v. with polyarginine (Examples 1, 2); format: in vivo, human
Description: A person enters the emergency room and is diagnosed with an ischemic event involving the middle cerebral artery, with symptomatology onset being under 1 hr. Immediately, the patient was administered an i.v. supplemented with poly-arginine (R(7)C-s-s-C (“R(7)C” disclosed as SEQ ID NO: 12), 5 mg/kg) while blood supply to the restricted area is restored.
A person is revived following stoke in their home by EMS and is rushed to the nearest hospital 80 miles away. Upon arriving at the hospital it is determined that the patient is showing signs of weakness on their left side. […] They are immediately started an i.v. and administered poly arginine (R(7) (SEQ ID NO: 5))@ 4 mg/kg/hr over a period of 5 days to arrest post-stroke neuronal damage. The patient is monitored for recovery signs.

Traumatic Brain Injury = experiment: TBI patient treated i.v. with polyarginine (Example 3); format: in vivo, human; settings: Example 3, severe concussion patient, i.v. 0.05 mg/kg, 3-5 days
Description: A high school football player is rushed to the emergency room of a local hospital suffering from a severe concussion following a helmet to helmet impact with an opposing player. The patient is initially unconscious on the field for over 20 min. EMS personnel arrived to find the patient responding to stimuli, but completely disoriented and unable to coordinate muscle movement, articulate speech or focus eye movements. Upon arriving at the ER, the patient is administered an i.v. containing R(7)C-s-s-C (“R(7)C” disclosed as SEQ ID NO: 12) peptide at 0.05 mg/kg. Delivery of the peptide continued until brain swelling resulting from the impact returns to normal state (3-5 days). Without being bound by any particular theory, the therapeutic is to arrest neuronal cell death resulting from these documented post-traumatic effects.

[2] = system: neurons in the spinal cord and in the brain; experiment: Intrathecal and intraventricular injection of fluorescent-tagged peptides, distribution in spinal cord and brain; format: in vivo; settings: fluorescent-tagged peptide
Description: Testing addressed intrathecal and intraventricular injection of fluorescent-tagged R(7) (SEQ ID NO: 5) and C-s-s-C-R(7) (“C-R(7)” disclosed as SEQ ID NO: 8). […] This approach is a workable option for quick delivery to prevent both stroke or traumatic injury to these tissues.

[3] = Example 2, post-stroke patient, i.v. 4 mg/kg/hr over 5 days, observed over the next 30 days

Compound | long-term protection against NMDA-induced retinal ganglion cell death [1] | short-term neuronal cell death signaling [1] | NMDA-induced loss of plasma membrane selectivity in NMDA-receptive neurons [1] | NMDA-induced caspase activation [1] | NMDA-induced mitochondrial-induced oxidative stress in the retina [1] | NMDA-induced poly-(ADP)ribosylolation [1] | oxidative stress following excitotoxic challenge (HEK293 cells) | stress-induced hyperpolarization of the mitochondrial membrane potentials (HEK293 cells) | mitochondrial oxidative stress (HEK293 cells) | short-term protection against NMDA-insult [1] | other results
N=C(N)NCCCC(NC(=O)[C@H](CCCNC(=N)N)NC(=O)C(N)CSSC[C@H](N)C(=O)O)C(=O)N[C@@H](CCCNC(=N)N)C(=O)NC(CCCNC(=N)N)C(=O)N[C@@H](CCCNC(=N)N)C(=O)NC(CCCNC(=N)N)C(=O)N[C@@H](CCCNC(=N)N)C(N)=O (stereo partly shown) [C-s-s-CR(7), C-s-s-C-R-R-R-R-R-R-R] | not significantly different from results obtained from untreated or sham-treated control retinas | block | blocked | fully block | fully block | fully block | significant attenuation | significant attenuation | significantly prevented | – | –
C-R-R-R-R-R-R-R (CRRRRRRR) [CR(7)] | not significantly different from results obtained from untreated or sham-treated control retinas | block | blocked | fully block | fully block | fully block | significant attenuation | significant attenuation | significantly prevented | – | neuroprotection ([1]; general statement, retina, NMDA-insult): effective when the peptide is made with either l- or d-amino acids; progression of neuronal cell death (glaucoma): no progression of neuronal cell death is detected
Fluorescent-tagged R(7): Fluorescent-tagged R(7) (SEQ ID NO: 5) (RRRRRRR; also: fluorescent tag, position not given here) | – | – | – | – | – | – | – | – | – | – | accumulation in retinal neurons and glia cells of ganglion and inner nuclear layers (retinal neurons; fluorescent-tagged peptide, 30 min following injection): significant accumulations; subcellular localisation of labeled peptide (double labeling) (retinal neurons; 2-4 hrs post injection): majority of these labeled puncta colocalize with mitochondrial-specific markers
R(7)-C: 7 arginine peptide with C-terminus cysteine (SEQ ID NO: 12) (RRRRRRRC; MOD_RES (1)..(7) Residues may be D or L configuration) | both short and long-term protection | – | – | – | – | – | – | – | – | both short and long-term protection | –
R(7)C-s-s-C: R(7)C (SEQ ID NO: 12) with second cysteine linked by disulfide to the terminal cysteine (RRRRRRRC(Cys); also: extra cysteine disulfide-linked to Cys8) | – | – | – | – | – | – | – | – | – | – | recovery of leg movement (spinal cord injury): substantial ability to move their legs is returned; CT/MRI imaging of the affected region (stroke; Example 1, ischemic stroke patient, i.v. 5 mg/kg): no signs of lesioning in the affected region; daily testing of cognitive and motor systems (stroke; Example 1, ischemic stroke patient, i.v. 5 mg/kg, onset under 1 hr): no deficits in physical or mental capacities; TBI and post-concussion symptoms (Traumatic Brain Injury): remains symptom free of TBI and post-concussion effects
RRRRRRR [R(7)] | less effective | block | blocked | fully block | fully block | fully block | significant attenuation | significant attenuation | significantly prevented | full short-term protection | muscle tone and limb recovery (stroke; [3]): increased muscle tone on the left side; speech pattern recovery (stroke; [3]): Improvement in their speech pattern
d-C-s-s-dCdR(7): d-isomer of C-s-s-CR(7) (CRRRRRRR; D-amino acids, disulfide-linked; MOD_RES (1)..(7) Residues are D configuration) | full short- and long-term neuroprotection | – | – | – | – | – | – | – | – | full short- and long-term neuroprotection | –
d-CdR(7): d-isomer of CR(7) (SEQ ID NO: 13) (CRRRRRRR; D-amino acids; MOD_RES (1)..(7) Residues are D configuration) | full short- and long-term neuroprotection | – | – | – | – | – | – | – | – | full short- and long-term neuroprotection | –
fluorescent-tagged CR(7): fluorescent-tagged CR(7) (SEQ ID NO: 8) (CRRRRRRR; also: fluorescent tag, position not given here) | – | – | – | – | – | – | – | – | – | – | accumulation in neurons of spinal cord and brain [2]: Preferential accumulation was noted in the neurons located within the hippocampus and cerebral cortex; crossing of the pia matter glial barrier [2]: readily crosses the pia matter glial barrier
